Our source for the IC50 values is patent US6387905B2, “Compounds useful for inhibition of farnesyl protein transferase” (Schering Corporation, priority 1996, dated 2002).

Where “and” joins values, the source holds several entries; their conditions need not be identical. Equal values may be shown once. Read-outs that look alike come from different tables or passages of the source. Some results are limits rather than exact numbers.

For assay [1], the target named is farnesyl protein transferase (FPT), H-ras (Homo sapiens, UniProt P49354+P49356). In words: FPT IC50 (H-ras), inhibition of farnesyl protein transferase, in vitro enzyme assay. Conditions: Table 4; read-out: FPT IC50. It counts as biochemical. The procedure: (§1) FPT IC50 (inhibition of farnesyl protein transferase, in vitro enzyme assay) and COS Cell IC50 (Cell-Based Assay) were determined following the assay procedures described in WO 95/10516, published Apr. 20, 1995. GGPT IC50 (inhibition of geranylgeranyl protein transferase, in vitro enzyme assay), Cell Mat Assay, and anti-tumor activity (in vivo anti-tumor studies) could be determined by the assay procedures described in WO 95/10516. The disclosure of WO 95/10516 is incorporated herein by reference thereto.

The next assay relates to COS Cell. In words: COS Cell IC50 (Cell-Based Assay). How it is done: as §1
A further assay deals with Human tumor cells. Description: Soft Agar Assay (anchorage-independent growth). It counts as cell-based. Conditions: Homo sapiens. How it is done: Anchorage-independent growth is a characteristic of tumorgenic cell lines. Human tumor cells are suspended in growth medium containing 0.3% agarose and an indicated concentration of a farnesyl transferase inhibitor. The solution is overlayed onto growth medium solidified with 0.6% agarose containing the same concentration of farnesyl transferase inhibitor as the top layer. After the top layer is solidified, plates are incubated for 10-16 days at 37° C. under 5% CO2 to allow colony outgrowth. After incubation, the colonies are stained by overlaying the agar with a solution of MTT (3-[4,5-dimethyl-thiazol-2-yl]-2,5-diphenyltetrazolium bromide, Thiazolyl blue) (1 mg/mL in PBS). Colonies can be counted and the IC50's can be determined.

The mark [2] stands for this setting: COS, Table 5, read-out: Cos Cell IC50.
Where [3] appears, read: Table 5, read-out: Soft Agar IC50.
The mark [4] stands for this setting: COS, read-out: Cos Cell IC50, Table 5.
[5] abbreviates: read-out: Soft Agar IC50, Table 5.

In the case of `CC(C)=NOCCC(=O)N1CCC(CC(=O)N2CCC([C@H]3c4ncc(Br)cc4CCc4cc(Cl)cc(Br)c43)CC2)CC1` [Cmpd 23.0-B], the figures for the concentration for half-maximal inhibition (IC50) (in assay [1]; in the assay with COS Cell (setting [2]); with Human tumor cells (setting [3])) were 2.8 nM, less than 10 nM and greater than 500 nM, respectively.
For `O=C(O)c1cccn1CC(=O)N1CCC(CC(=O)N2CCC([C@H]3c4ncc(Br)cc4CCc4cc(Cl)cc(Br)c43)CC2)CC1` [Cmpd 52.0-B] the same measures were 1.3 nM, 400 nM and 500 nM.
For `O=C(O)CC(O)CC(=O)N1CCC(CC(=O)N2CCC([C@H]3c4ncc(Br)cc4CCc4cc(Cl)cc(Br)c43)CC2)CC1` (some centres unmarked) [Example 74.0-B] the same measures were 1.7 nM, 40 nM and 500 nM.
The matching figures for `O=C(CC1CCN(C(=O)Cn2cncn2)CC1)N1CCC([C@H]2c3ncc(Br)cc3CCc3cc(Cl)cc(Br)c32)CC1` [Cmpd 57.0-B]: 1.8 nM, less than 10 nM and 110 nM.
For the compound `O=C(NOCc1ccccc1)C(=O)N1CCC(CC(=O)N2CCC([C@H]3c4ncc(Br)cc4CCc4cc(Cl)cc(Br)c43)CC2)CC1` [Cmpd 60.0-B], the IC50 in assay [1] amounted to 5.4 nM; in the assay with COS Cell (setting [2]), 120 nM; in the assay with Human tumor cells (setting [3]), 500 nM.
Turning to `COC(=O)c1cccn1CC(=O)N1CCC(CC(=O)N2CCC([C@H]3c4ncc(Br)cc4CCc4cc(Cl)cc(Br)c43)CC2)CC1` [Cmpd 35.0-B], the half-inhibitory concentration (IC50) in assay [1] stood at 6.4 nM; with COS Cell (setting [2]), 30 nM; with COS Cell (Table 5, read-out: Cos Cell IC50), 50 nM; in the assay with Human tumor cells (setting [3]) it was 300 nM.
In the case of `O=C(O)CC(=O)N1CCC(CC(=O)N2CCC([C@H]3c4ncc(Br)cc4CCc4cc(Cl)cc(Br)c43)CC2)CC1` [Example 14.0-B], the IC50 in assay [1] was 0.9 nM and 1.9 nM; with COS Cell (setting [4]) it was 250 nM; in the assay with COS Cell (read-out: Cos Cell IC50, Table 5) it was 200 nM; in the assay on Human tumor cells (setting [5]), greater than 500 nM.
`O=C(CC1CCN(C(=O)CN2CCS(=O)(=O)CC2)CC1)N1CCC([C@H]2c3ncc(Br)cc3CCc3cc(Cl)cc(Br)c32)CC1` [Cmpd 6.0-B]: the 50% inhibitory concentration (IC50) in assay [1] came to 2.7 nM; in the assay with COS Cell (setting [2]), 30 nM; with Human tumor cells (setting [3]) it was 210 nM.
For `CONC(=O)C(=O)N1CCC(CC(=O)N2CCC(C3c4ncc(Br)cc4CCc4cc(Cl)cc(Br)c43)CC2)CC1` (centres unmarked) [Cmpd 49.0-B] the same measures were 2.1 nM, 38 nM and greater than 500 nM.
For `O=C(Cc1c[nH]cn1)N1CCC(CC(=O)N2CCC([C@H]3c4ncc(Br)cc4CCc4cc(Cl)cc(Br)c43)CC2)CC1` [Cmpd 30.0-B] the same measures were 2.9 nM, 9 nM and 500 nM.
Take `O=C(OCc1ccccc1)c1cccn1CC(=O)N1CCC(CC(=O)N2CCC([C@H]3c4ncc(Br)cc4CCc4cc(Cl)cc(Br)c43)CC2)CC1` [Cmpd 55.0-B]: the IC50 in assay [1] was 9.2 nM; in the assay with COS Cell (setting [2]), 200 nM; in the assay on Human tumor cells (setting [3]) it was greater than 500 nM.
On to `Cc1nccn1CC(=O)N1CCC(CC(=O)N2CCC([C@H]3c4ncc(Br)cc4CCc4cc(Cl)cc(Br)c43)CC2)CC1` [Cmpd 10.0-B], for which the IC50 in assay [1] was 2.5 nM; in the assay with COS Cell (setting [2]), 20 nM; in the assay on Human tumor cells (setting [3]), greater than 300 nM.
For `CC(C)(C)OC(=O)N1CC(O)CC1C(=O)N1CCC(CC(=O)N2CCC(C3c4ncc(Br)cc4CCc4cc(Cl)cc(Br)c43)CC2)CC1` (centres unmarked) [Example 24.0-B] the same measures were 0.7 nM, 100 nM and greater than 500 nM.
For `O=C(O)CCC(=O)N1CCC(CC(=O)N2CCC([C@H]3c4ncc(Br)cc4CCc4cc(Cl)cc(Br)c43)CC2)CC1` [Example 78], the values for the half-inhibitory concentration (IC50) (in assay [1]; in the assay on COS Cell (setting [4]); with Human tumor cells (setting [5])) were 1.2 nM, 75 nM and greater than 500 nM, respectively.
As for `O=C(O)NC(=O)C(=O)N1CCC(CC(=O)N2CCC([C@H]3c4ncc(Br)cc4CCc4cc(Cl)cc(Br)c43)CC2)CC1` [Cmpd 59.0-B], the results for the IC50 (in assay [1]; in the assay on COS Cell (setting [2]); in the assay on Human tumor cells (setting [3])) were 4 nM, 50 nM and 500 nM, respectively.
For `O=C(CC1CCN(C(=O)Cn2cccc2)CC1)N1CCC([C@H]2c3ncc(Br)cc3CCc3cc(Cl)cc(Br)c32)CC1` [Cmpd 34.0-B] the same measures were 4.2 nM, 9 nM and 460 nM.
For `NC(=O)CCCCCC(=O)N1CCC(CC(=O)N2CCC([C@H]3c4ncc(Br)cc4CCc4cc(Cl)cc(Br)c43)CC2)CC1` [Cmpd 71.0-B] the same measures were 3.3 nM, 19 nM and 240 nM.
For `NC(=O)CCCC(=O)N1CCC(CC(=O)N2CCC([C@H]3c4ncc(Br)cc4CCc4cc(Cl)cc(Br)c43)CC2)CC1` [Cmpd 114.0-B] the same measures were 3.9 nM, 35 nM and 395 nM.
For `O=C(CC1CCN(C(=O)C2CC(O)CN2)CC1)N1CCC([C@H]2c3ncc(Br)cc3CCc3cc(Cl)cc(Br)c32)CC1` (some centres unmarked) [Cmpd 63.0-B], the half-inhibitory concentration (IC50) came to 3.5 nM in assay [1], 55 nM with COS Cell (setting [2]) and 500 nM with Human tumor cells (setting [3]).
The matching figures for `O=C(CC1CCN(C(=O)CC2COCCO2)CC1)N1CCC([C@H]2c3ncc(Br)cc3CCc3cc(Cl)cc(Br)c32)CC1` (some centres unmarked) [Cmpd 114.2-B]: 3.9 nM, 10 nM and 75 nM.
Consider `NNC(=O)C(=O)N1CCC(CC(=O)N2CCC([C@H]3c4ncc(Br)cc4CCc4cc(Cl)cc(Br)c43)CC2)CC1` [Cmpd 32.0-B], for which the IC50 in assay [1] was 3.5 nM; in the assay with COS Cell (setting [2]), 28 nM; with Human tumor cells (setting [3]), greater than 500 nM.
The matching figures for `CC(=O)C(=O)N1CCC(CC(=O)N2CCC([C@H]3c4ncc(Br)cc4CCc4cc(Cl)cc(Br)c43)CC2)CC1` [Cmpd 72.0-B]: 5.4 nM, 10 nM and 320 nM.
For `COC(=O)Cc1cn(CC(=O)N2CCC(CC(=O)N3CCC([C@H]4c5ncc(Br)cc5CCc5cc(Cl)cc(Br)c54)CC3)CC2)cn1` [Cmpd 56.0-B] the same measures were 3.3 nM, 50 nM and greater than 500 nM.
The matching figures for `CCOC(=O)CC(CC(=O)N1CCC(CC(=O)N2CCC(C3c4ncc(Br)cc4CCc4cc(Cl)cc(Br)c43)CC2)CC1)OC(C)=O` (centres unmarked) [Example 16.0-B]: 5.3 nM, 16 nM and 90 nM.
As to `NC(=O)CCC(=O)N1CCC(CC(=O)N2CCC([C@H]3c4ncc(Br)cc4CCc4cc(Cl)cc(Br)c43)CC2)CC1` [Cmpd 69.0-B], the values for the half-inhibitory concentration (IC50) (in assay [1]; with COS Cell (setting [2]); in the assay with Human tumor cells (setting [3])) were 2.5 nM, 25 nM and 190 nM, respectively.
The matching figures for `O=C(O)C(=O)N1CCC(CC(=O)N2CCC([C@H]3c4ncc(Br)cc4CCc4cc(Cl)cc(Br)c43)CC2)CC1` [Cmpd 17.0-B]: 1.2 nM, greater than 1000 nM and greater than 500 nM.
The matching figures for `O=C(CC1CCN(C(=O)CC2CCCO2)CC1)N1CCC([C@H]2c3ncc(Br)cc3CCc3cc(Cl)cc(Br)c32)CC1` (some centres unmarked) [Cmpd 114.4-B]: 7.8 nM, 10 nM and 363 nM.
For `O=C(CC1CCN(C(=O)Cn2cnc([N+](=O)[O-])c2)CC1)N1CCC([C@H]2c3ncc(Br)cc3CCc3cc(Cl)cc(Br)c32)CC1` [Cmpd 26.0-B] the same measures were 3.2 nM, 30 nM and greater than 500 nM.
Take `NS(=O)(=O)NCC(=O)N1CCC(CC(=O)N2CCC([C@H]3c4ncc(Br)cc4CCc4cc(Cl)cc(Br)c43)CC2)CC1` [Cmpd 39.0-B]: the IC50 in assay [1] is 4.1 nM; with COS Cell (setting [2]) it was 16 nM; with Human tumor cells (setting [3]), 220 nM.
The matching figures for `O=C(CO/N=C/c1ccccc1O)N1CCC(CC(=O)N2CCC([C@H]3c4ncc(Br)cc4CCc4cc(Cl)cc(Br)c43)CC2)CC1` [Cmpd 95.0-B]: 8.3 nM, 11 nM and greater than 500 nM.
`O=C(O)CCCCCC(=O)N1CCC(CC(=O)N2CCC([C@H]3c4ncc(Br)cc4CCc4cc(Cl)cc(Br)c43)CC2)CC1` [Example 80]: the half-inhibitory concentration (IC50) in assay [1] is 1.4 nM; in the assay on COS Cell (setting [4]) it was 25 nM; with Human tumor cells (setting [5]), 250 nM.
With `CC(C)=NOCC(=O)N1CCC(CC(=O)N2CCC([C@H]3c4ncc(Br)cc4CCc4cc(Cl)cc(Br)c43)CC2)CC1` [Cmpd 9.0-B], the figures for the IC50 (in assay [1]; in the assay with COS Cell (setting [2]); in the assay on Human tumor cells (setting [3])) were 5.8 nM, 25 nM and greater than 500 nM, respectively.
The matching figures for `CN(C)S(=O)(=O)NCC(=O)N1CCC(CC(=O)N2CCC([C@H]3c4ncc(Br)cc4CCc4cc(Cl)cc(Br)c43)CC2)CC1` [Cmpd 38.0-B]: 3.2 nM, 10 nM and 210 nM.
The matching figures for `CC(C)(C)OC(=O)NCCCC(=O)N1CCC(CC(=O)N2CCC([C@H]3c4ncc(Br)cc4CCc4cc(Cl)cc(Br)c43)CC2)CC1` [Example 89.0-B]: 8.7 nM, 550 nM and greater than 500 nM.
The matching figures for `O=C(CC1CCN(C(=O)CN2C(=O)CSC2=O)CC1)N1CCC([C@H]2c3ncc(Br)cc3CCc3cc(Cl)cc(Br)c32)CC1` [Cmpd 79.0-B]: 4.4 nM, 150 nM and greater than 500 nM.

In general, IC50 refers to the concentration at which inhibition is half-maximal.
